In paper PMC6022228, “Introducing novel potent anticancer agents of 1H-benzo[f]chromene scaffolds, targeting c-Src kinase enzyme with MDA-MB-231 cell line anti-invasion effect” (Journal of Enzyme Inhibition and Medicinal Chemistry, 2018):
≈ marks a conversion by molar mass, not a printed value. Where “and” joins values, the source holds several entries; their conditions need not be identical. Equal values may be shown once. Read-outs that look alike come from different tables or passages of the source.

Assays:
[1] = tested on: MCF-7; test: MTT viability assay, MCF-7 (breast cancer); type: cell-based; settings: Homo sapiens, MCF7, 24 h incubation, mean ± standard error
Experimental: (§1) Compounds 4a–h and 6a–h were initially evaluated for in vitro antitumour activity against three different human cell lines: MCF-7, HCT-116, and HepG-2, and only the representative active cytotoxic compounds were further evaluated against the normal HFL-1 cell line. The in vitro cytotoxicity evaluation was performed at the Regional Center for Mycology & Biotechnology (RCMP), Al-Azhar University under different concentrations (50, 25, 12.5, 6.25, 3.125, 1.56, and 0 µg/mL); Vinblastine and Doxorubicin are used as reference cytotoxic compounds. The measurements of cell growth and the in vitro cytotoxicity evaluation were determined using viability assay as described in literature[31–33] and the result was cited in Table 1 and Figure 2.
(§2) The in vitro cytotoxic evaluation of the prepared compounds 4a–h and 6a–h was performed against MCF-7 (breast cancer), HCT-116 (human colon cancer), HepG-2 (liver cancer), and HFL-1(normal fibroblast lung) using the 3-(4,5-dimethylthiazol-2-yl)-2,5-diphenyl tetrazolium bromide (MTT) colorimetric assay as described in literature. […] The results were expressed as growth inhibitory concentration (IC50) values, which represent the compounds’ concentrations required to produce a 50% inhibition of the cell growth after 24 h of incubation, compared to the untreated controls as shown in Table 1 and Figure 2.

[2] = tested on: HCT-116; test: MTT viability assay, HCT-116 (human colon cancer); type: cell-based; settings: 24 h incubation, mean ± standard error
Experimental: as §1, §2

[3] = tested on: HepG-2; test: MTT viability assay, HepG-2 (liver cancer); type: cell-based; settings: Homo sapiens, HepG2, 24 h incubation, mean ± standard error
Experimental: as §1, §2

[4] = tested on: HFL-1; test: MTT viability assay, HFL-1 (normal fibroblast lung); type: cell-based; settings: Homo sapiens, HFL1, 24 h incubation, normal cell line, mean ± standard error
Experimental: as §1, §2

[5] = target: T1, c-Src kinase (Homo sapiens, UniProt P12931); test: c-Src kinase assay (HTScan Src Kinase Assay Kit); type: biochemical; settings: GST-Src kinase, triplicate; read-out: Inhibition of c-Src kinase activity, IC50
T1 construct: purchased Cell Signaling Technology (Danvers, MA) 7776
Experimental: Streptavidin-coated plates were purchased from Pierce (Rockford, IL). […] The reaction mixture was incubated for 30 min at room temperature. The kinase reaction was stopped with the addition of 50 µL of 50 mM EDTA (pH 8.0). […] At the end of the incubation, the wells were washed three times with 200 µL of 0.05% Tween-20 in PBS buffer (PBS/T). After that to each well was added 100 µL of phosphotyrosine antibody (P-Tyr-100) (1:1000 dilution in PBS/T with 1% BSA) and the wells were incubated for another 60 min. After washing three times with 0.05% Tween-20 in PBS/T, the wells were incubated with 100 µL secondary anti-mouse IgG antibody, which was HRP-conjugated (1:500 dilution in PBS/T with 1% BSA) for next 30 min at room temperature. The wells were washed five times with 0.05% Tween-20 in PBS and then were incubated with 100 µL of 3,3′,5,5′-tetramethylbenzidine dihydrochloride substrate for 5 min. […] IC50 values of the compounds were calculated using ORIGIN 6.0 (Origin Lab Corporation, Northampton, MA) software. […] All the experiments were carried out in triplicate.

[6] = tested on: caspases 3/7 in MDA-MB-231 cells; test: Caspase-Glo 3/7 activity assay; type: cell-based; settings: Homo sapiens, 24 h treatment, 10 concentrations, read-out: Caspase-Glo 3/7 activity assay, MDA-MB-231 cell line, IC50
Experimental: The Caspase-Glo 3/7 activity assay was performed by Reaction Biology Corporation, One Great Valley Parkway, PA. Examined compounds 4c, 4e, 4h, 6d, and 6e were dissolved in DMSO as 20 mM stock and tested for their ability to Caspase-Glo 3/7 activity assay. […] Caspase-Glo 3/7 activity assay reagent was purchased from Promega (Madison, WI). MDA-MB-231 cell line was provided by ATCC. MDA-MB-231 cell line culture conditions: DMEM with 10% FBS. 100 µg/mL penicillin and 100 µg/mL streptomycin were added to the culture media. Cultures were maintained at 37 °C in a humidified atmosphere of 5% CO2 and 95% air.
Caspases are […] that promote apoptosis. Caspases are vital biochemical features of apoptotic signalling. […] To determine whether the cell growth inhibition in response to the benzochromene derivatives was mediated by apoptosis and was caspase dependent, MDA-MB-231 cells were treated with 10 different concentrations of the target compounds for 24 h.

[7] = tested on: MDA-MB-231 cell line; test: Cell invasion assay; type: cell-based; settings: Homo sapiens
Experimental: The cell invasion assay was performed by Reaction Biology Corporation, One Great Valley Parkway, PA. All compounds were dissolved in DMSO and tested for their ability to cell invasion assay. Compounds 4c, 6e, and reference compound bosutinib were purchased from Sellechem (Houston, TX). Corning Bio Coat Fluoro Blok Insert System-96-well plates were purchased from Corning (Corning Incorporated, Tewksbury, MA). Calcein AM labelling reagent was purchased from Molecular Probes (Eugene, Oregon). MDA-MB-231 cell line was purchased from American Type Culture Collection (Manassas, VA). MDA-MB-231 cells were grown in DMEM medium supplemented with 10% foetal bovine serum (FBS), 100 µg/mL of penicillin, and 100 µg/mL of streptomycin. Cultures were maintained at 37 °C in a humidified atmosphere of 5% CO2 and 95% air-following incubation; medium was carefully removed from the apical chambers. The insert system was transferred into a second 96-square well plate containing 200 µl/well of 4 µg/mL Calcein AM in HBSS. The plates were incubated for 1 h at 37 °C, 5% CO2. Fluorescence of invaded cells was read at wavelengths of 492/535 nm (Ex/Em) from bottom reading using Envision 2104 Multilabel Reader (PerkinElmer, Santa Clara, CA). The IC50 curves were plotted and IC50 values were calculated using the Graph Pad Prism 4 program for windows (Graph Pad software, San Diego California. www.graphpad.com) based on a sigmoidal dose-response equation.
Tumour invasion is a common feature of triple-negative breast cancers. […] The invasion process has become an important prerequisite for cancer progression and metastasis. […] A bosutinib drug was used as a control ant-invasive agent. […] The obtained data might confirm that the cytotoxicity of novel molecules led to the death of the cancer cells and stopped the metastatic processes.

T1 sequence (P12931 whole entry): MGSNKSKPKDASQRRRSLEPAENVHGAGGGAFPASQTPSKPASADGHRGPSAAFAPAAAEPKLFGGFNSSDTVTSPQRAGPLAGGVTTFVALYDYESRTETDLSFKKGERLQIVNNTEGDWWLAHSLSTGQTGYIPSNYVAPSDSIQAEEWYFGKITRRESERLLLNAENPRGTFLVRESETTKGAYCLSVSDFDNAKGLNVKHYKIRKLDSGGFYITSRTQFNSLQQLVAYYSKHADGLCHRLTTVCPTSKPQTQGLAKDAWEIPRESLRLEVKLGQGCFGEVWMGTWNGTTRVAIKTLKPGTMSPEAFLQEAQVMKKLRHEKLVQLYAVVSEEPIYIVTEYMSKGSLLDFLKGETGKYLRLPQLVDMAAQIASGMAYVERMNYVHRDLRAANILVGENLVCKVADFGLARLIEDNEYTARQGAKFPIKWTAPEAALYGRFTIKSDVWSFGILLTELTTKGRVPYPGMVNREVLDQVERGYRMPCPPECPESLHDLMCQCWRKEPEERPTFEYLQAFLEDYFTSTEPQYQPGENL

IC50 [1] [µg/mL] | melting point [°C] | IC50 [2] [µg/mL] | IC50 [3] [µg/mL] | IC50 [5] | IC50 [6] [µM] | IC50 ([7]; Table 2, read-out: IC50 anti-invasion, MDA-MB-231 breast cancer cells) [µM] | IC50 ([7]; read-out: IC50 anti-invasion activity, MDA-MB-231) [µM] | SMILES | IC50 [4] [µg/mL]
0.9 ± 0.29 (≈ 2.39 µM) | 245 to 246 | 1.2 ± 0.97 (≈ 3.18 µM) | 0.7 ± 0.5 (≈ 1.86 µM) |  |  |  |  | N#CC1=C(N)Oc2ccc3cc(Br)ccc3c2C1c1ccccc1 (stereo not shown) [Compound 4a, 3-Amino-8-bromo-1-phenyl-1H-benzo[f]chromene-2-carbonitrile] | 
0.66 ± 0.04 (≈ 1.51 µM) | 200 to 201 | 4.1 ± 0.16 (≈ 9.38 µM) | 11 ± 0.02 (≈ 25.2 µM) | 0.214 to 0.329 µM and 0.214 µM | 31.5 |  |  | COc1ccc(C2C(C#N)=C(N)Oc3ccc4cc(Br)ccc4c32)cc1OC (stereo not shown) [Compound 4h, 3-Amino-8-bromo-1-(3,4-dimethoxyphenyl)-1H-benzo[f]chromene-2-carbonitrile] | 12.9 ± 0.13 (≈ 29.5 µM)
0.5 ± 0.23 (≈ 1.21 µM) | 260 to 261 | 0.7 ± 0.11 (≈ 1.7 µM) | 1.1 ± 0.12 (≈ 2.67 µM) | 0.009 to 0.329 µM and 0.089 µM | 22.6 | 10.8 | 10.5 | N#CC1=C(N)Oc2ccc3cc(Br)ccc3c2C1c1ccc(Cl)cc1 (stereo not shown) [Compound 4c, 3-Amino-8-bromo-1-(4-chlorophenyl)-1H-benzo[f]chromene-2-carbonitrile] | 15.2 ± 0.1 (≈ 36.9 µM)
2.7 ± 0.2 (≈ 8.22 µM) | 237 to 238 | 2.1 ± 0.23 (≈ 6.4 µM) | 11.2 ± 0.18 (≈ 34.1 µM) |  |  |  |  | COc1ccc2c3c(ccc2c1)OC(N)=C(C#N)C3c1ccccc1 (stereo not shown) [Compound 6a, 3-Amino-1-phenyl-8-methoxy-1H-benzo[f]chromene-2-carbonitrile] | 
0.6 ± 0.08 (≈ 1.67 µM) | 222 to 223 | 3.8 ± 0.14 (≈ 10.6 µM) | 29.3 ± 0.12 (≈ 81.8 µM) |  |  |  |  | COc1ccc(C2C(C#N)=C(N)Oc3ccc4cc(OC)ccc4c32)cc1 (stereo not shown) [Compound 6f, 3-Amino-8-methoxy-1-(4-methoxyphenyl)-1H-benzo[f]chromene-2-carbonitrile] | 
2.5 ± 0.14 (≈ 5.48 µM) | 250 to 251 | 0.5 ± 0.35 (≈ 1.1 µM) | 1.8 ± 0.2 (≈ 3.95 µM) |  |  |  |  | N#CC1=C(N)Oc2ccc3cc(Br)ccc3c2C1c1ccc(Br)cc1 (stereo not shown) [Compound 4d, 3-Amino-8-bromo-1-(4-bromophenyl)-1H-benzo[f]chromene-2-carbonitrile] | 
3.8 ± 0.36 (≈ 9.33 µM) | 234 to 235 | 44.9 ± 0.14 (≈ 110 µM) | 4.4 ± 0.05 (≈ 10.8 µM) |  |  |  |  | COc1ccc(C2C(C#N)=C(N)Oc3ccc4cc(Br)ccc4c32)cc1 (stereo not shown) [Compound 4f, 3-Amino-8-bromo-1-(4-methoxyphenyl)-1H-benzo[f]chromene-2-carbonitrile] | 
6.1 ± 0.03 (≈ 7.52 µM) |  | 2.6 ± 0.08 (≈ 3.21 µM) | 4.6 ± 0.01 (≈ 5.67 µM) |  |  |  |  | CC[C@]1(O)C[C@@H]2CN(CCc3c([nH]c4ccccc34)[C@@](C(=O)OC)(c3cc4c(cc3OC)N(C)[C@H]3[C@@](O)(C(=O)OC)[C@H](OC(C)=O)[C@]5(CC)C=CCN6CC[C@]43[C@@H]65)C2)C1 [Vinblastine, reference compound] | 
41.1 ± 0.25 (≈ 106 µM) | 200 to 201 | 13.9 ± 0.3 (≈ 35.8 µM) | 30.7 ± 0.5 (≈ 79 µM) |  |  |  |  | COc1ccc2c3c(ccc2c1)OC(N)=C(C#N)C3c1ccc(OC)c(OC)c1 (stereo not shown) [Compound 6h, 3-Amino-1-(3,4-dimethoxyphenyl)-8-methoxy-1H-benzo[f]chromene-2-carbonitrile] | 
